Where a name gives a salt, the structure may show the parent alone.
How the values were obtained:
[1] = tested on: UACC 903 xenografted tumours; assay: Xenografted melanoma tumour growth; type: in vivo, athymic-Foxn1−/− (nude) mice; conditions: for reduction of tumour growth / tumour inhibition: oral administration, UACC 903 xenograft, day 22
UACC 903 cells [2] = assay: Co-treatment with apoptosome inhibitor NS3694, viability; type: cell-based; conditions: 50 μMol/l NS-3694 co-treatment
[3] = CNS related sedation, video surveillance; type: in vivo, Swiss Webster mice; conditions: for onset of sedation after oral administration / persistence of sedation: xenograft mice, oral
UACC 903 cells [4] = assay: Western blot of autophagic flux markers LC3B and p62/SQSTM1; type: cell-based
[5] = tested on: UACC 903, 1205 Lu and A2058 tumour development; assay: Xenografted melanoma tumour growth; type: in vivo, athymic-Foxn1−/− (nude) mice; conditions: for tumour weights lower than control groups: end of treatment, Figure 2E and H (UACC 903 and A2058); for decrease in tumour development: oral, perphenazine 50 mg kg^−1 or fluphenazine 25 mg kg^−1 at 4-day intervals
[6] = Body weight of treated mice; type: in vivo; conditions: for loss of body weight: xenograft mice, 2 days after oral drug treatments
UACC 903 cells [7] = assay: Co-treatment with necrosis inhibitors IM-54 / Necrostatin-5, viability; type: cell-based; conditions: IM-54 and Necrostatin-5
UACC 903 cells [8] = assay: Cholesterol localisation assay; type: cell-based; conditions: after 6 h
Serum toxicity markers = type: in vivo, mice; conditions: serum at end of oral treatment
UACC 903 cells [9] = assay: Mitochondrial membrane potential; type: cell-based
[10] = tested on: BAX-knockout HCT116 cells; assay: Viability of BAX-knockout HCT116 cells; type: cell-based, human; conditions: 24 h, increasing concentrations
[11] = H&E histology of major organs; type: in vivo, mice; conditions: oral treatment
prostate cancer = conditions: phase-2; ref Clinical Trial Id: NCT00417274; cited from earlier work
UACC 903 cells [12] = assay: Caspase-dependence, z-VAD-fmk pre-treatment, viability; type: cell-based; conditions: z-VAD-fmk 20 μmol l^−1, 1 h pre-treatment; TRAIL 50 ng ml^−1

Molecule: CNCCCN1c2ccccc2CCc2ccccc21 [Desipramine, Desipramine HCL]
- reduction of tumour growth / tumour inhibition [1]: 30%

Molecule: OCCN1CCN(CCC=C2c3ccccc3Sc3ccc(C(F)(F)F)cc32)CC1 [Flupentixol, Flupenthixol diHCL]
- protection from cell death by NS-3694 (UACC 903 cells [2]): partially protected

Molecule: OCCN1CCN(CCCN2c3ccccc3Sc3ccc(C(F)(F)F)cc32)CC1 [Fluphenazine]
- protection from cell death by NS-3694 (UACC 903 cells [2]): partially protected
- onset of sedation after oral administration [3]: Thirty to sixty minutes
- persistence of sedation [3]: > 24 h
- LC3B and p62 protein levels (western blot) (UACC 903 cells [4]): dose-dependent accumulation of LC3B and p62 proteins
- tumour weights lower than control groups [5]: 40–60%
- decrease in tumour development [5]: 40–60%
- loss of body weight [6]: 10%

Molecule: CC(C)c1ccc2c(c1)CC[C@H]1[C@](C)(CN)CCC[C@]21C [Leelamine]
- protection from cell death by necrosis inhibitors (UACC 903 cells [7]): neither of the two necrosis inhibitors, IM-54 and Necrostatin-5, protected
- intracellular cholesterol accumulation (Filipin-III staining) (UACC 903 cells [8]): intracellular cholesterol accumulation

Molecule: CNCCC=C1c2ccccc2CCc2ccccc21 [Nortriptyline, Nortriptyline HCL]
- reduction of tumour growth / tumour inhibition [1]: 50%
- LC3B and p62 protein levels (western blot) (UACC 903 cells [4]): dose-dependent accumulation of LC3B and p62 proteins

Molecule: OCCN1CCN(CCCN2c3ccccc3Sc3ccc(Cl)cc32)CC1 [Perphenazine]
- total bilirubin levels compared to controls (Serum toxicity markers): significantly higher
- ΔΨmt − (cells that lost MMP) (UACC 903 cells [9]; 6 h 10 μM): 19%
- ΔΨmt − (cells that lost MMP) (UACC 903 cells [9]; 6 h 15 μM): 28%
- protection from cell death by NS-3694 (UACC 903 cells [2]): partially protected
- sensitivity of BAX-knockout compared with wild-type HCT116 cells [10]: more resistant
- histological analysis of vital organs [11]: no alteration in cell morphology or tissue architecture
- % of time mice awake in 24 h period ([3]; 15 mg kg^−1 oral): slightly greater sedative effect compared to liposomal treatment
- % of time mice awake in 24 h period ([3]; 50 mg kg^−1 oral): 6%
- onset of sedation after oral administration [3]: Thirty to sixty minutes
- persistence of sedation [3]: > 24 h
- inhibition of UACC 903 tumour development by the free drug ([1]; 12.5 or 25 mg kg^−1, orally every other day): ineffective
- reduction of tumour growth / tumour inhibition [1]: 60%
- mitotic figures in H&E stained tumour sections ([1]; tumours from treated animals): significant decrease in mitotic figure numbers
- LC3B and p62 protein levels (western blot) (UACC 903 cells [4]): dose-dependent accumulation of LC3B and p62 proteins
- tumour weights lower than control groups [5]: 40–60%
- decrease in tumour development [5]: 40–60%
- body weight loss ([6]; Swiss Webster mice, following treatment): 10%
- loss of body weight [6]: 10%

Molecule: CCN(CC)CCO[C@H]1CC[C@@]2(C)C(=CC[C@@H]3[C@@H]2CC[C@]2(C)C(=O)CC[C@@H]32)C1.Cl [U18666A, U-18666A]
- intracellular cholesterol accumulation (Filipin-III staining) (UACC 903 cells [8]): intracellular cholesterol accumulation

Molecule: CCN(CC)CCCC(C)Nc1c2ccc(Cl)cc2nc2ccc(OC)cc12 (stereo not shown) [quinacrine, Mepacrine (Quinacrine) DiHCL]
- patients with stabilisation or decrease in the rate of disease progression (prostate cancer): ~50 % of the patients

B1: TRAIL: positive control for caspase-dependent cell death (50 ng ml^−1) (protein, UniProt P50591 1-281, looked up)
Tumor necrosis factor ligand …: MAMMEVQGGPSLGQTCVLIVIFTVLLQSLCVAVTYVYFTNELKQMQDKYSKSGIACFLKEDDSYWDPNDEESMNSPCWQVKWQLRQLVRKMILRTSEETISTVQEKQQNISPLVRERGPQRVAAHITGTRGRSNTLSSPNSKNEKALGRKINSWESSRSGHSFLSNLHLRNGELVIHEKGFYYIYSQTYFRFQEEIKENTKNDKQMVQYIYKYTSYPDPILLMKSARNSCWSKDAEYGLYSIYQGGIFELKENDRIFVSVTNEHLIDMDHEASFFGAFLVG
- effect of pan-caspase inhibitor z-VAD-fmk on cell death (UACC 903 cells [12]): protected cells from apoptosis
